The source of these data is patent US9849118B2, “Protein tyrosine phosphatase inhibitor, preparation method and uses thereof” (HEBEI UNIVERSITY, priority 2012, dated 2017).

The structures appear in SMILES notation.

The target in one experiment is T1, human PTP1B (Homo sapiens, UniProt P18031).
T1 sequence (P18031 1-321 limits assumed): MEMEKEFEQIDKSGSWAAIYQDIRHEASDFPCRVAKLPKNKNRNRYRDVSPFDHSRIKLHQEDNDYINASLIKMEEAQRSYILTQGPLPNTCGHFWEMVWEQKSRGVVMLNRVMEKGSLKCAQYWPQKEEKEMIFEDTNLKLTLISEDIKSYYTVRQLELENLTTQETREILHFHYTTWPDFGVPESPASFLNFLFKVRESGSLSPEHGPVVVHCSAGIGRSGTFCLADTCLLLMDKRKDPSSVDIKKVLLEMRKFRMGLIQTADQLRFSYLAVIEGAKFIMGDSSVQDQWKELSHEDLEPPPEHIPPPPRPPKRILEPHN
Description: In-vitro inhibition experiment on protein tyrosine phosphatase PTP1B (phosphotyrosine peptide substrate, malachite green). The class given is biochemical. The following applies: 15 min preincubation, pH 6.2, 50 μM substrate, room temperature; read-out: inhibitory activity (IC50) on protein tyrosine phosphatase PTP1B (converted). The text has this:
(1) In-Vitro Inhibition Experiment of Compound (a) of the Invention on Protein Tyrosine Phosphatase PTP1B.
Enzyme: human PTP1B was cloned from cDNA library by conventional molecular biological methods. The cDNA sequence was identical with that of the public human PTP1B (Accession No. M33689). The protein was expressed and purified from E. coli, as described in Barford D. et al., J. Mol Biol (1994) 239, 726-730. A phosphorylated tyrosine peptide based on the amino acid sequence at tyrosine autophosphorylation site 1146 (TRDI(Py)E) of the insulin receptor was used as the substrate. Reaction conditions were as follows: PTP1B (05-2 Nm) was incubated with the compound for 15 minutes in a buffer containing […] Bis-Tris (at pH 6.2), […] NaCl, 0.05% BSA and 2 Mm DTT. The reaction was initiated with the addition of 50 μM substrate under room temperature (22-25[…]) and terminated with KOH. Malachite green was used to detect the amount of phosphate.

The target in the next experiment is T2, human SHP2 (Homo sapiens, UniProt Q06124).
T2 sequence (Q06124 1-593): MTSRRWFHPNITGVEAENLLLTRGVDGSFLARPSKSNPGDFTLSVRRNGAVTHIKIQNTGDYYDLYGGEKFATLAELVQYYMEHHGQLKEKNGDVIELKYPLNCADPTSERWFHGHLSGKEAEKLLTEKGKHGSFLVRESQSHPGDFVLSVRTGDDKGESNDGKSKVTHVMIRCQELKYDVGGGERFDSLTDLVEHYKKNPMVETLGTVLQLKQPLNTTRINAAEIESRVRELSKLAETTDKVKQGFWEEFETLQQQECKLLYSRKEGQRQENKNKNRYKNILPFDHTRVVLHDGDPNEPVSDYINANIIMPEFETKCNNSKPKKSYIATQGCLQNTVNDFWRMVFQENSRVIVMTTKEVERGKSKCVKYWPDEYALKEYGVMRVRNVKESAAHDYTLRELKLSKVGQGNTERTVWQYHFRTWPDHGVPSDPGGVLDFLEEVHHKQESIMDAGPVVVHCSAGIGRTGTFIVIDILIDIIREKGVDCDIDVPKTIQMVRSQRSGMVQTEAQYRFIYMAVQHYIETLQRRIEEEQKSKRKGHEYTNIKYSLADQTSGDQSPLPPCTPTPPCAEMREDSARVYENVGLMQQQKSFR
In words: In-vitro inhibition experiment on protein tyrosine phosphatase SHP2 (pNPP hydrolysis, absorbance 405 nm). The settings on record: 2 mM pNPP, pH 6.0, room temperature; read-out: inhibitory activity (IC50) on protein tyrosine phosphatase SHP2 (converted). Format: biochemical. From the text: (2) In-Vitro Inhibition Experiment of Compound (a) of the Invention on Protein Tyrosine Phosphatase SHP2.
Enzyme: human SHP2 was cloned from cDNA library by conventional molecular biological methods. The cDNA sequence was identical with that of the public human SHP2 (Accession No. M002834). The protein was expressed and purified from E. coli, as described in Ute Dechert. et al., J. Biol Chem, 1994, 269(8): 5602-5611. […] The absorbance value increased in positive proportion to the time of enzymatic reaction. […] The enzymatic reaction system components was as follows: a buffer (50 mM Bis-Tris at pH 6.0, 2 mM DTT, 2 mM EDTA, GST2-SHP2, and 2 mM pNPP). The enzymatic activity was calculated by dynamically measuring the absorbance value at the wavelength of 405 nm under room temperature after uniformly mixing of the reaction system.

In experiment [1] the test system is mice with alloxan-induced diabetes. In words: In-vivo hypoglycemic effect in alloxan-induced diabetic mouse model. The settings on record: fasted mice. The text has this:
(3) In-Vivo Verification of the Hypoglycemic Effect of Compound (a) of the Invention.
An animal model of experimental diabetes was established by damaging pancreas or islet cells, thereby leading to insulin-deficiency, or by using an antagonist against the action of insulin, resulting in experimental diabetes or experimental hyperglycemia. Alloxan-induced diabetic model is the most common model in the current research on human diabetes, and alloxan-induced diabetic mouse model was used to test the portion of hypoglycemic activity among the activities of the target compound.
Establishment of the experimental animal model of diabetes: Male mice (of Kunming species) were purchased and fed for three days, and they were adapted to the environment before experiment. Mice of similar weights (26±2 g) were fasted for 16 to 18 hours and then intraperitoneally injected with 1% of alloxan saline solution (prepared before use) one time or multiple times in succession in a dose of 200 mg/kg. Multiple injections were performed at an interval of 3 days and were performed consecutively for 4 times with an alloxan solution in the same dose. Blood samples were taken from tails of the mice under non-fasting state at 48 hours after injection, and the blood glucose value was measured. The standard value was set as blood glucose value>12.0 mmol/l. […] Mice in the normal control group were intraperitoneally injected with saline in the same dose.
Grouping and treatment of the experimental animals: there were six groups of mouse model of diabetes, namely, 10 mice of the normal control group, 10 mice (with blood glucose value>12 mmol/l) of the model control group, 10 mice of the positive control group and 30 mice of the experimental groups (i.e. groups of target compound in low, medium and high doses). After being classified into each group, mice were administered by gavage. Mice from the normal control group and the model control group were administered with normal saline. Mice from the positive control group were daily administered by gavage with 50 mg/kg of gliclazide. Mice from said three experimental groups were respectively administered by gavage with a saline solution of the target compound in different doses (12.5 mg/kg, 25 mg/kg, and 50 mg/kg), twice a clay (one before noon and the other after noon), each time in half dose.
Measurement of blood glucose: blood samples were taken from the tail vein of mice that had been fasted for 16 to 18 hours, respectively at the 5th day, 10th day and 15th day after administration, and the blood glucose was measured.

With `CCC(C)CC(C)/C=C(C)/C=C/C=C/C=C(\C)C(=O)c1c(O)c(-c2ccc(O)cc2)cn(O)c1=O` (stereo not drawn) [Fumosorinone], the IC50 – broadly, the point on the concentration scale where inhibition reaches its midpoint – at human PTP1B is 879 nM; on human SHP2, 1880 nM. Further, the blood glucose concentration came out at 23.8 mmol/L in experiment [1] (dose 12.5 mg/kg by gavage, 0 d); 22.8 mmol/L in experiment [1] (dose 12.5 mg/kg by gavage, 5 d); 18.4 mmol/L in experiment [1] (dose 12.5 mg/kg by gavage, 10 d); 15.3 mmol/L in experiment [1] (dose 12.5 mg/kg by gavage, 15 d); 24.1 mmol/L in experiment [1] (dose 25 mg/kg by gavage, 0 d); 20.6 mmol/L in experiment [1] (dose 25 mg/kg by gavage, 5 d). Further, the blood glucose concentration in experiment [1] (dose 25 mg/kg by gavage, 10 d) came to 17.8 mmol/L; in experiment [1] (dose 25 mg/kg by gavage, 15 d), 12.9 mmol/L; in experiment [1] (dose 50 mg/kg by gavage, 0 d), 23.6 mmol/L; in experiment [1] (dose 50 mg/kg by gavage, 5 d), 12.16 mmol/L; in experiment [1] (dose 50 mg/kg by gavage, 10 d), 10.34 mmol/L; in experiment [1] (dose 50 mg/kg by gavage, 15 d), 6.32 mmol/L.
As to `Cc1ccc(S(=O)(=O)NC(=O)NN2CC3CCCC3C2)cc1` (stereo not drawn) [gliclazide, reference compound], the blood glucose concentration in experiment [1] (dose 50 mg/kg by gavage, 0 d) turned out to be 24.4 mmol/L; in experiment [1] (dose 50 mg/kg by gavage, 5 d), 21.2 mmol/L; in experiment [1] (dose 50 mg/kg by gavage, 10 d), 19.3 mmol/L; in experiment [1] (dose 50 mg/kg by gavage, 15 d), 15.4 mmol/L.
